The text below walks through data of ChEMBL document CHEMBL1137797, “Differential inhibition of reverse transcriptase and various DNA polymerases by digallic acid and its derivatives” (J Nat Prod, 1990).

Assay [1] relates to Human immunodeficiency virus. In words: Inhibition of HIV reverse transcriptase activity expressed in Escherichia coli.
Assay [2] relates to Rauscher murine leukemia virus. The assay can be described thus: Inhibition of Rauscher murine leukemia virus reverse transcriptase activity.
For assay [3], the system named is Human immunodeficiency virus. In words: Inhibition of HIV reverse transcriptase expressed in Escherichia coli assessed as competitive inhibition using (rA)n.(dT)12-18 as primer by double reciprocal plot.
Assay [4] in a line: Inhibition of HIV reverse transcriptase expressed in Escherichia coli by Dixon plot. Set-up: species or system Human immunodeficiency virus.
Assay [5] concerns Human immunodeficiency virus. The assay can be described thus: Inhibition of HIV reverse transcriptase expressed in Escherichia coli assessed as non-competitive inhibition using dTTP as primer by double reciprocal plot.
Assay [6] concerns Human immunodeficiency virus. In words: Inhibition of HIV reverse transcriptase expressed in Escherichia coli assessed as incorporation of [3H]dTMP at 1 ug/ml.
Assay [7] has as its target T1, DNA polymerase alpha catalytic subunit (Homo sapiens) (UniProt P09884).
T1 sequence (whole entry): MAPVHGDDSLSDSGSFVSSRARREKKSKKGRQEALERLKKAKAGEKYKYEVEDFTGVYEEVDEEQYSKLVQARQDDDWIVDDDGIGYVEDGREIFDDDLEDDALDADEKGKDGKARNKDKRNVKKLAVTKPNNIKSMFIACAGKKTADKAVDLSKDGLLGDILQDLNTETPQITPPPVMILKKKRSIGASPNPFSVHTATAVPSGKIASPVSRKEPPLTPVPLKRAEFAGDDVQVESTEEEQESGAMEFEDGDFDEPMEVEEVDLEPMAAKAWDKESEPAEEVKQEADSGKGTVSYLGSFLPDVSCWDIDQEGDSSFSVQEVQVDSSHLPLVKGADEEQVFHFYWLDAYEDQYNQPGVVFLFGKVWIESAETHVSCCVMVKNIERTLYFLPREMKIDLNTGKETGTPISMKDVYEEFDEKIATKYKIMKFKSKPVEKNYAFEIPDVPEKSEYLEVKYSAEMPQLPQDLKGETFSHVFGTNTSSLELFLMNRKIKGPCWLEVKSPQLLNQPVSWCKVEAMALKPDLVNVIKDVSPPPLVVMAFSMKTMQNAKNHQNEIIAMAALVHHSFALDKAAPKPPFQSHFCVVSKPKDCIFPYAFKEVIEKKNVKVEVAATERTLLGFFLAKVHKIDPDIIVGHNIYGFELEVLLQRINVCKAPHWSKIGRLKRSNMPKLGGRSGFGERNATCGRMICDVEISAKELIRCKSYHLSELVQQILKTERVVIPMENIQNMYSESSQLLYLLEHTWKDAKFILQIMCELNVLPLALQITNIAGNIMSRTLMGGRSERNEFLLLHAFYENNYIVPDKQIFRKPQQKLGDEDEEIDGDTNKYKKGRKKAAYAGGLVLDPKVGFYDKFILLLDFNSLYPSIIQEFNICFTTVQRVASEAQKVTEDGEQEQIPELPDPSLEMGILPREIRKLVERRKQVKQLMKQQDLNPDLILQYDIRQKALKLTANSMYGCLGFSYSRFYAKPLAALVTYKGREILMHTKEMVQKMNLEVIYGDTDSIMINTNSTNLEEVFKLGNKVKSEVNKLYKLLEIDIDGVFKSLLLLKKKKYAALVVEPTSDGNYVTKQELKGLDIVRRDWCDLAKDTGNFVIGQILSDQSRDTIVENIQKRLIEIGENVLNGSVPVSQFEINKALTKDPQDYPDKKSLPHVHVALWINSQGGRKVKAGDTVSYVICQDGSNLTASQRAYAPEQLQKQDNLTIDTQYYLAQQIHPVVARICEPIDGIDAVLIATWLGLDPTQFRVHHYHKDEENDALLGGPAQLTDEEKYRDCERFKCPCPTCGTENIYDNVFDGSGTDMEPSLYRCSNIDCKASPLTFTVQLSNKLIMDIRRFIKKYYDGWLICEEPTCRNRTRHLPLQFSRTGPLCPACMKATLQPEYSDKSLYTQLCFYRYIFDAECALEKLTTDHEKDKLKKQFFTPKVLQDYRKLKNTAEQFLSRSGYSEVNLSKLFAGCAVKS
In words: Inhibition of DNA polymerase alpha from human KB3 cells assessed as competitive type inhibition using activated DNA as substrate.

The target of assay [8] is T2, DNA polymerase beta (Homo sapiens, UniProt P06746). In words: Inhibition of DNA polymerase beta from human KB3 cells. Format: cell-based.
Assay [9] concerns Human immunodeficiency virus. The assay can be described thus: Inhibition of HIV reverse transcriptase expressed in Escherichia coli assessed as incorporation of [3H]dTMP at 0.2 ug/ml.
Assay [10] concerns the target DNA polymerase I (Escherichia coli) (UniProt P00582). The assay can be described thus: Inhibition of DNA polymerase-1 from Escherichia coli up to 1 ug/ml.
Assay [11] concerns the target T3, DNA polymerase alpha catalytic subunit (Homo sapiens, UniProt P09884).
T3 sequence (P09884 whole entry): T1 sequence (whole entry)
The assay can be described thus: Inhibition of DNA polymerase alpha from human KB3 cells. Format: cell-based.

Assay [12] addresses T1, DNA polymerase alpha catalytic subunit (Homo sapiens). In words: Inhibition of DNA polymerase alpha from human KB3 cells assessed as non-competitive type inhibition using dNTP as substrate.
Assay [13] addresses DNA nucleotidylexotransferase (Bos taurus) (UniProt P06526). The assay can be described thus: Inhibition of terminal deoxynucleotidyltransferase from calf thymus up to 1 ug/ml.
Assay [14] addresses T2, DNA polymerase beta. The assay can be described thus: Inhibition of DNA polymerase beta from human KB3 cells assessed as competitive type inhibition using (rA)n.(dT)12-18 as substrate.
In assay [15] the test system is Human immunodeficiency virus. In words: Inhibition of HIV reverse transcriptase expressed in Escherichia coli assessed as mixed-type inhibition using (rA)n.(dT)12-18 as primer by double reciprocal plot.
Assay [16] concerns Rauscher murine leukemia virus. In words: Inhibition of Rauscher murine leukemia virus reverse transcriptase assessed as incorporation of [3H]dTMP at 0.2 ug/ml.
In assay [17] the target is T1, DNA polymerase alpha catalytic subunit (Homo sapiens). The assay can be described thus: Inhibition of DNA polymerase alpha from human KB3 cells at 1 ug/ml. It is filed as cell-based.
Assay [18] concerns the target T2, DNA polymerase beta. In words: Inhibition of DNA polymerase beta from human KB3 cells assessed as non-competitive type inhibition using dTTP as substrate.
The test system of the next assay is KB3. In words: Inhibition of DNA polymerase gamma from human KB3 cells up to 1 ug/ml. Format: cell-based.
For assay [19], the system named is Rauscher murine leukemia virus. In words: Inhibition of Rauscher murine leukemia virus reverse transcriptase assessed as incorporation of [3H]dTMP at 1 ug/ml.
Assay [20] has as its system Human immunodeficiency virus. In words: Inhibition of HIV reverse transcriptase expressed in Escherichia coli assessed as incorporation of [3H]dTMP at 10 ug/ml.
Assay [21] has as its system Rauscher murine leukemia virus. The assay can be described thus: Inhibition of Rauscher murine leukemia virus reverse transcriptase assessed as incorporation of [3H]dTMP at 10 ug/ml.

Active and inactive are the calls of the source. No cut-off for these calls is given here.

Chain of DNA nucleotidylexotransferase (Bos taurus) (P06526 whole entry): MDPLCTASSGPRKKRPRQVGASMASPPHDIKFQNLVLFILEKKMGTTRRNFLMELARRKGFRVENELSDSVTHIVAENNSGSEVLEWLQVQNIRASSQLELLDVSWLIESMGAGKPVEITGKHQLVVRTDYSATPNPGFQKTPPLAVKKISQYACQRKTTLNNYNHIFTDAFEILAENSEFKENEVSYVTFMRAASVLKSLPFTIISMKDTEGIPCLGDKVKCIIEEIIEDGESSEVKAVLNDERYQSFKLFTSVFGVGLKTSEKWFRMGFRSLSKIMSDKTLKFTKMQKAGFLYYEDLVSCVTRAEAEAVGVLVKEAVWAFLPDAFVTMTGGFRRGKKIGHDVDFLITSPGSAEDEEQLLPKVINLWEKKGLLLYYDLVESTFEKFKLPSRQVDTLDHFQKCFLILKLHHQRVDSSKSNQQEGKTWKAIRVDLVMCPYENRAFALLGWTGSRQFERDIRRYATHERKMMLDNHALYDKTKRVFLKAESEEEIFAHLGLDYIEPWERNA
Chain of DNA polymerase I (Escherichia coli) (P00582 whole entry): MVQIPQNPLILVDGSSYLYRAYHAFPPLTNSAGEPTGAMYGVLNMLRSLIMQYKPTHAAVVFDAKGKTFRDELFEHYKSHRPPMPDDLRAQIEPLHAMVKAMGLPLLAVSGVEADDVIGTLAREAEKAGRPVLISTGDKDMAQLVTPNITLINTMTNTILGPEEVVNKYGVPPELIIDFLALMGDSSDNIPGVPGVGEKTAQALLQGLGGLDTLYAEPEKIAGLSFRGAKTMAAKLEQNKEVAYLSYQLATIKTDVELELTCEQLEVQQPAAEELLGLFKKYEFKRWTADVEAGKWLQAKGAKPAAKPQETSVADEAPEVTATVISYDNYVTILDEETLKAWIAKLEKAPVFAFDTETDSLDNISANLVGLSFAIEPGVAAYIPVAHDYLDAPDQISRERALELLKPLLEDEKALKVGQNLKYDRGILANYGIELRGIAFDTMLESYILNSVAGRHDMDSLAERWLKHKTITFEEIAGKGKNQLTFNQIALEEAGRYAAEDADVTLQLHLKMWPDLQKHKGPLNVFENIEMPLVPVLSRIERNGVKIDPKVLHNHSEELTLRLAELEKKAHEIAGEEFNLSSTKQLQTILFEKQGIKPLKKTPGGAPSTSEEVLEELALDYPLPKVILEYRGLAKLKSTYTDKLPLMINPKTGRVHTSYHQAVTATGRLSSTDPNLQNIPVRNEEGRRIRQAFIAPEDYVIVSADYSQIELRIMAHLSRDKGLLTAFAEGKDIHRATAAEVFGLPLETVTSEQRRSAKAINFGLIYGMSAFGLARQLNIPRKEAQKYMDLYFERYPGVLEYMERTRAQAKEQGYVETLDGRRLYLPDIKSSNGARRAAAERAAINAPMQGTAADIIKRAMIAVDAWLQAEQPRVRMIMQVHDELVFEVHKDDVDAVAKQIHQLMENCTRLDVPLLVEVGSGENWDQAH

Consider `COCCOCCOC(=O)c1cc(O)c(O)c(O)c1`, for which the outcome in [1] and in assay [2] was inactive.
The term Ki denotes a measure of affinity in units of concentration, obtained from inhibition or displacement. In the case of `COCCOCCOC(=O)c1cc(O)c(O)c(OC(=O)c2ccc(O)c(O)c2O)c1`, the outcome in assay [1], in assay [3], in [2] and in [5] was Active. Moreover, in assay [4], the Ki amounted to 120 nM.
The term inhibition denotes the drop in the measured response relative to a control, in per cent. For `O=C(O)c1cc(O)c(O)c(OC(=O)c2cc(O)c(O)c(O)c2)c1` [DIGALLIC ACID], the outcome (in assay [6]; in assay [7]; in assay [12]; at DNA polymerase beta [14]; in [15]; on DNA polymerase beta [18]) was Active. The result in assay [19] and in assay [5] was Active. Besides, the Ki worked out at 390 nM at DNA polymerase beta [8], 830 nM in [11] and 580 nM in assay [4]. Moreover, the values for the inhibition in [9], in assay [16] and in assay [17] were 70%, 70% and more than 90%, respectively. Also, the outcome (in assay [10]; in assay [13]; in the assay on KB3) was inactive.
On to `O=C(Oc1cc(O)cc(O)c1C(=O)O)c1ccc(O)c(O)c1`, for which the result in [1] and in [2] was inactive.
In the case of `COCCOCCOc1c(C(=O)Oc2cc(C(=O)O)cc(O)c2O)ccc(O)c1O`, the result in assay [1] and in [2] was inactive.
Turning to `COCCOCCOCCOC(=O)c1cc(O)c(O)c(OC(=O)c2ccc(O)c(O)c2O)c1`, the outcome in [1], in assay [15], in assay [2] and in assay [5] was Active. For the same compound, the Ki in [4] was determined as 390 nM.
Take `COCCOCCOCCOC(=O)c1cc(O)c(O)c(O)c1`: the outcome in assay [1] and in assay [2] was inactive.
Take `COCCOCCOc1c(O)ccc(C(=O)Oc2cc(C(=O)O)cc(O)c2O)c1O`: the outcome in assay [1] and in assay [2] was inactive.
For the compound `O=C(O)c1cc(O)c(O)c(O)c1`, the outcome in [1], in assay [20], in [21] and in assay [2] was inactive.
